According to PMC5218480 (PLoS ONE, 2017):

Test system: MV-4-11 cells
Test: Gene expression microarray analysis (Affymetrix PrimeView) and GSEA
Type: cell-based, human
Set-up: RFU PODN (11730768_x_at) / Fold change /veh PODN (11730768_x_at) / RFU LINC00158 (11744669_a_at) / Fold change /veh LINC00158 (11744669_a_at) / RFU DUSP10 (11751237_a_at) / Fold change /veh DUSP10 (11751237_a_at) / RFU ID3 (11757404_x_at) / Fold change /veh ID3 (11757404_x_at) / RFU PLEKHG5 (11737974_s_at) / Fold change /veh PLEKHG5 (11737974_s_at) / RFU LRRC4B (11730491_at) / Fold change /veh LRRC4B (11730491_at) / RFU GIMAP4 (11747438_a_at) / Fold change /veh GIMAP4 (11747438_a_at) / RFU KRT8 (11758183_x_at) / Fold change /veh KRT8 (11758183_x_at) / RFU CNN1 (11734310_a_at) / Fold change /veh CNN1 (11734310_a_at) / RFU VPS37D (11726825_at) / Fold change /veh VPS37D (11726825_at) / RFU C10orf10 (11716522_x_at) / Fold change /veh C10orf10 (11716522_x_at) / RFU KIR2DL2 /// KIR2DL4 /// KIR2DL5A /// KIR2DL5B /// KIR2DS1 /// KIR2DS2 /// KIR2DS3 /// KIR2DS4 /// KIR3DL3 /// KIR3DL3 /// KIR3DS1 (11738374_at) / Fold change /veh KIR2DL2 /// KIR2DL4 /// KIR2DL5A /// KIR2DL5B /// KIR2DS1 /// KIR2DS2 /// KIR2DS3 /// KIR2DS4 /// KIR3DL3 /// KIR3DL3 /// KIR3DS1 (11738374_at) / RFU C1QL1 (11718748_at) / Fold change /veh C1QL1 (11718748_at) / RFU TMPRSS4 (11747572_a_at) / Fold change /veh TMPRSS4 (11747572_a_at) / RFU HAMP (11756126_x_at) / Fold change /veh HAMP (11756126_x_at) / RFU RNFT2 (11725882_a_at) / Fold change /veh RNFT2 (11725882_a_at) / RFU NR4A2 (11747474_a_at) / Fold change /veh NR4A2 (11747474_a_at) / RFU ABCC12 (11746883_a_at) / Fold change /veh ABCC12 (11746883_a_at) / RFU TMEM136 (11760407_x_at) / Fold change /veh TMEM136 (11760407_x_at) / RFU CLDN22 /// WWC2 (11732394_at) / Fold change /veh CLDN22 /// WWC2 (11732394_at) / RFU HLA-DPB1 (11760878_x_at) / Fold change /veh HLA-DPB1 (11760878_x_at) / RFU SPINT1 (11716480_a_at) / Fold change /veh SPINT1 (11716480_a_at) / RFU GAP43 (11754022_s_at) / Fold change /veh GAP43 (11754022_s_at) / RFU A4GNT (11735810_at) / Fold change /veh A4GNT (11735810_at) / RFU PRB3 (11715151_x_at) / Fold change /veh PRB3 (11715151_x_at) / RFU TUBB4B (11761932_at) / Fold change /veh TUBB4B (11761932_at) / RFU CAPN14 (11732068_a_at) / Fold change /veh CAPN14 (11732068_a_at) / RFU TMCC2 (11721928_a_at) / Fold change /veh TMCC2 (11721928_a_at) / RFU IRGQ (11745062_a_at) / Fold change /veh IRGQ (11745062_a_at) / RFU FAM174B (11720279_a_at) / Fold change /veh FAM174B (11720279_a_at) / RFU TMPRSS4 (11748680_a_at) / Fold change /veh TMPRSS4 (11748680_a_at) / RFU FAM212B (11763350_a_at) / Fold change /veh FAM212B (11763350_a_at) / RFU PLEKHG5 (11743358_a_at) / Fold change /veh PLEKHG5 (11743358_a_at) / RFU ZSCAN30 (11745921_a_at) / Fold change /veh ZSCAN30 (11745921_a_at) / RFU CMKLR1 (11741424_a_at) / Fold change /veh CMKLR1 (11741424_a_at) / RFU LOC101060620 /// MAPK8IP1 (11723275_at) / Fold change /veh LOC101060620 /// MAPK8IP1 (11723275_at) / RFU SPTSSB (11747773_x_at) / Fold change /veh SPTSSB (11747773_x_at) / RFU PRSS12 (11739890_at) / Fold change /veh PRSS12 (11739890_at) / RFU BIN1 (11741810_x_at) / Fold change /veh BIN1 (11741810_x_at) / RFU WNT11 (11732464_a_at) / Fold change /veh WNT11 (11732464_a_at) / RFU C10orf10 (11716521_a_at) / Fold change /veh C10orf10 (11716521_a_at) / RFU C5orf56 (11738089_at) / Fold change /veh C5orf56 (11738089_at) / RFU CYB561 (11721691_x_at) / Fold change /veh CYB561 (11721691_x_at) / RFU ANKRD19P (11752326_a_at) / Fold change /veh ANKRD19P (11752326_a_at) / RFU OR2T12 /// OR2T33 /// OR2T8 (11738714_s_at) / Fold change /veh OR2T12 /// OR2T33 /// OR2T8 (11738714_s_at) / RFU VCAN (11748164_a_at) / Fold change /veh VCAN (11748164_a_at) / RFU JSRP1 (11732532_at) / Fold change /veh JSRP1 (11732532_at) / RFU KRTAP10-11 (11738290_x_at) / Fold change /veh KRTAP10-11 (11738290_x_at) / RFU MYO3A (11730013_a_at) / Fold change /veh MYO3A (11730013_a_at) / RFU EBF3 (11725865_a_at) / Fold change /veh EBF3 (11725865_a_at) / RFU CAMK2N1 (11719241_x_at) / Fold change /veh CAMK2N1 (11719241_x_at) / RFU C5orf56 (11738088_a_at) / Fold change /veh C5orf56 (11738088_a_at) / RFU OLFML3 (11715873_a_at) / Fold change /veh OLFML3 (11715873_a_at) / RFU LOC100653217 /// NTM (11731650_a_at) / Fold change /veh LOC100653217 /// NTM (11731650_a_at) / RFU MAPK11 (11762145_a_at) / Fold change /veh MAPK11 (11762145_a_at) / RFU FIZ1 (11724087_x_at) / Fold change /veh FIZ1 (11724087_x_at) / RFU OASL (11726364_x_at) / Fold change /veh OASL (11726364_x_at) / RFU SOX15 (11748057_x_at) / Fold change /veh SOX15 (11748057_x_at) / RFU CD79A (11719716_a_at) / Fold change /veh CD79A (11719716_a_at) / RFU HIST1H1D (11736915_at) / Fold change /veh HIST1H1D (11736915_at) / RFU CASKIN2 (11723855_a_at) / Fold change /veh CASKIN2 (11723855_a_at) / RFU LOC730098 (11760151_x_at) / Fold change /veh LOC730098 (11760151_x_at) / RFU OR4N2 (11742367_at) / Fold change /veh OR4N2 (11742367_at) / RFU PRRT2 (11749266_a_at) / Fold change /veh PRRT2 (11749266_a_at) / RFU SNX32 (11753110_a_at) / Fold change /veh SNX32 (11753110_a_at) / RFU CDHR5 (11726645_a_at) / Fold change /veh CDHR5 (11726645_a_at) / RFU RCAN1 (11760418_a_at) / Fold change /veh RCAN1 (11760418_a_at) / RFU FAM167A (11723789_a_at) / Fold change /veh FAM167A (11723789_a_at) / RFU FAM26E (11764081_at) / Fold change /veh FAM26E (11764081_at) / RFU ISYNA1 (11749810_s_at) / Fold change /veh ISYNA1 (11749810_s_at) / RFU ACY1 (11761880_at) / Fold change /veh ACY1 (11761880_at) / RFU 11764098_at / Fold change /veh 11764098_at / RFU SAMD14 (11745864_x_at) / Fold change /veh SAMD14 (11745864_x_at) / RFU NPB (11741838_a_at) / Fold change /veh NPB (11741838_a_at) / RFU TMPRSS6 (11731388_a_at) / Fold change /veh TMPRSS6 (11731388_a_at) / RFU KRTAP10-2 (11738614_at) / Fold change /veh KRTAP10-2 (11738614_at) / RFU ARHGAP8 /// PRR5-ARHGAP8 (11727945_x_at) / Fold change /veh ARHGAP8 /// PRR5-ARHGAP8 (11727945_x_at) / RFU KRTAP5-7 /// NADSYN1 (11734609_at) / Fold change /veh KRTAP5-7 /// NADSYN1 (11734609_at) / RFU RASL12 (11751679_a_at) / Fold change /veh RASL12 (11751679_a_at) / RFU CDKN2B (11736163_a_at) / Fold change /veh CDKN2B (11736163_a_at) / RFU PRF1 (11729649_at) / Fold change /veh PRF1 (11729649_at) / RFU, ZNF638 /// ZNF638-IT1 / Fold change vs veh, ZNF638 /// ZNF638-IT1 / RFU, PANK3 / Fold change vs veh, PANK3 / RFU, SH3YL1 / Fold change vs veh, SH3YL1 / RFU, ZEB2 / Fold change vs veh, ZEB2 / RFU, NRIP1 / Fold change vs veh, NRIP1 / RFU, PTTG1IP / Fold change vs veh, PTTG1IP / RFU, CAPN2 / Fold change vs veh, CAPN2 / RFU, MED14 / Fold change vs veh, MED14 / RFU, SNORA58 / Fold change vs veh, SNORA58 / RFU, C1orf63 / Fold change vs veh, C1orf63 / RFU, LRRFIP1 / Fold change vs veh, LRRFIP1 / RFU, NDUFAF7 / Fold change vs veh, NDUFAF7 / RFU, SLC12A2 / Fold change vs veh, SLC12A2 / RFU, IBTK / Fold change vs veh, IBTK / RFU, ESF1 / Fold change vs veh, ESF1 / Fold change vs veh, TMEM50B / RFU, TAOK1 / Fold change vs veh, TAOK1 / RFU, ACBD3 / Fold change vs veh, ACBD3 / RFU, TMA16 / Fold change vs veh, TMA16 / RFU, RWDD3 / Fold change vs veh, RWDD3 / RFU, BCAT1 / Fold change vs veh, BCAT1 / RFU, EDEM3 / Fold change vs veh, EDEM3 / RFU, TMEM33 / Fold change vs veh, TMEM33 / RFU, WDR75 / Fold change vs veh, WDR75 / RFU, AHCTF1 / Fold change vs veh, AHCTF1 / RFU, TFRC / Fold change vs veh, TFRC / RFU, ZDHHC17 / Fold change vs veh, ZDHHC17 / RFU, NOM1 / Fold change vs veh, NOM1 / RFU, ARL8B / Fold change vs veh, ARL8B / RFU, ZBTB11 / Fold change vs veh, ZBTB11 / RFU, TAMM41 / Fold change vs veh, TAMM41 / RFU, KIAA1704 /// LOC100996395 / Fold change vs veh, KIAA1704 /// LOC100996395 / RFU, ING1 / Fold change vs veh, ING1 / RFU, TRMT61B / Fold change vs veh, TRMT61B / RFU, FUBP3 / Fold change vs veh, FUBP3 / RFU, TP53 / Fold change vs veh, TP53 / RFU, TNKS2 / Fold change vs veh, TNKS2 / RFU, ZFP14 / Fold change vs veh, ZFP14 / RFU, ACTR2 / Fold change vs veh, ACTR2 / RFU, PPP3R1 / Fold change vs veh, PPP3R1 / RFU, PIK3R1 / Fold change vs veh, PIK3R1 / RFU, HNRNPA1 / Fold change vs veh, HNRNPA1 / RFU, RNF170 / Fold change vs veh, RNF170 / RFU, ZNF28 / Fold change vs veh, ZNF28 / RFU, RNGTT / Fold change vs veh, RNGTT / RFU, OGT / Fold change vs veh, OGT / RFU, BRD1 / Fold change vs veh, BRD1 / RFU, MARS / Fold change vs veh, MARS / RFU, ZNF655 / Fold change vs veh, ZNF655 / RFU, FAHD1 / Fold change vs veh, FAHD1 / RFU, BDP1 / Fold change vs veh, BDP1 / RFU, LRRCC1 / Fold change vs veh, LRRCC1 / RFU, ARID1A / Fold change vs veh, ARID1A / RFU, ZNF146 / Fold change vs veh, ZNF146 / RFU, ZNF330 / Fold change vs veh, ZNF330 / RFU, GPN3 / Fold change vs veh, GPN3 / RFU, C9orf123 / Fold change vs veh, C9orf123 / RFU, N4BP2L2 / Fold change vs veh, N4BP2L2 / RFU, ARFIP1 / Fold change vs veh, ARFIP1 / RFU, FAM179B / Fold change vs veh, FAM179B / RFU, BCL10 / Fold change vs veh, BCL10 / RFU, UHRF1BP1L / Fold change vs veh, UHRF1BP1L / RFU, BET1 / Fold change vs veh, BET1 / RFU, CNOT2 / Fold change vs veh, CNOT2 / RFU, ZNF268 / Fold change vs veh, ZNF268 / Fold change vs veh, ZNF507 / RFU, DGCR2 / Fold change vs veh, DGCR2 / RFU, WDSUB1 / Fold change vs veh, WDSUB1 / Fold change vs veh, HSP90B1 /// MIR3652 / RFU, ADSS / Fold change vs veh, ADSS / RFU, GK / Fold change vs veh, GK / RFU, ZNF148 / Fold change vs veh, ZNF148 / RFU, TAF9 / Fold change vs veh, TAF9 / RFU, SLC1A5 / Fold change vs veh, SLC1A5 / RFU, SLMO2 / Fold change vs veh, SLMO2 / RFU, ABCC4 / Fold change vs veh, ABCC4 / RFU, LOC101060439 /// RAP1B / Fold change vs veh, LOC101060439 /// RAP1B / RFU, RFX7 / Fold change vs veh, RFX7 / RFU, GTPBP10 / Fold change vs veh, GTPBP10 / RFU, CNEP1R1 / Fold change vs veh, CNEP1R1 / RFU, BIVM-ERCC5 /// ERCC5 / Fold change vs veh, BIVM-ERCC5 /// ERCC5 / RFU, ILF3 / Fold change vs veh, ILF3 / RFU 11762660_at / Fold change /veh 11762660_at / RFU VCAN (11757783_s_at) / Fold change /veh VCAN (11757783_s_at) / RFU DDX43 (11728927_at) / Fold change /veh DDX43 (11728927_at) / RFU KRT8 (11758188_x_at) / Fold change /veh KRT8 (11758188_x_at) / RFU NKD1 (11759106_at) / Fold change /veh NKD1 (11759106_at) / RFU SRD5A1 (11742802_a_at) / Fold change /veh SRD5A1 (11742802_a_at) / RFU TPSAB1 /// TPSB2 (11721975_s_at) / Fold change /veh TPSAB1 /// TPSB2 (11721975_s_at) / RFU GSTM3 (11746129_a_at) / Fold change /veh GSTM3 (11746129_a_at) / RFU IL23R (11737362_x_at) / Fold change /veh IL23R (11737362_x_at) / RFU TMEM51 (11727254_a_at) / Fold change /veh TMEM51 (11727254_a_at) / RFU PIWIL2 (11732686_x_at) / Fold change /veh PIWIL2 (11732686_x_at) / RFU ORM1 (11744905_x_at) / Fold change /veh ORM1 (11744905_x_at) / RFU CCDC152 (11743942_at) / Fold change /veh CCDC152 (11743942_at) / RFU ECM1 (11717891_a_at) / Fold change /veh ECM1 (11717891_a_at) / RFU IL23R (11748794_a_at) / Fold change /veh IL23R (11748794_a_at) / RFU TNFAIP8L3 (11732012_x_at) / Fold change /veh TNFAIP8L3 (11732012_x_at) / RFU MBOAT4 (11741988_at) / Fold change /veh MBOAT4 (11741988_at) / RFU 11764193_at / Fold change /veh 11764193_at / RFU TMEM53 (11763286_at) / Fold change /veh TMEM53 (11763286_at) / RFU MAGEB2 (11727129_at) / Fold change /veh MAGEB2 (11727129_at) / RFU TMEM200A (11744735_a_at) / Fold change /veh TMEM200A (11744735_a_at) / RFU CCDC152 (11751479_a_at) / Fold change /veh CCDC152 (11751479_a_at) / RFU FAM211A (11726209_a_at) / Fold change /veh FAM211A (11726209_a_at) / RFU RGS16 (11746705_a_at) / Fold change /veh RGS16 (11746705_a_at) / RFU VCAN (11755009_s_at) / Fold change /veh VCAN (11755009_s_at) / RFU RHOB (11743442_s_at) / Fold change /veh RHOB (11743442_s_at) / RFU RGS16 (11720943_a_at) / Fold change /veh RGS16 (11720943_a_at) / RFU RGS16 (11720944_at) / Fold change /veh RGS16 (11720944_at) / RFU, VPS4B / Fold change vs veh, VPS4B / RFU, CREB1 / Fold change vs veh, CREB1 / RFU, DNAJC13 / Fold change vs veh, DNAJC13 / RFU, GNAQ / Fold change vs veh, GNAQ / RFU, CDK5R1 / Fold change vs veh, CDK5R1 / RFU, ZRANB3 / Fold change vs veh, ZRANB3 / RFU, CUL4A / Fold change vs veh, CUL4A / RFU, CCNY / Fold change vs veh, CCNY / RFU, UFL1 / Fold change vs veh, UFL1 / RFU, COG3 / Fold change vs veh, COG3 / RFU, DIAPH2 / Fold change vs veh, DIAPH2 / RFU, SKA2 / Fold change vs veh, SKA2 / RFU, AFF3 / Fold change vs veh, AFF3 / RFU, LMF1 / Fold change vs veh, LMF1 / RFU, IPO11 / Fold change vs veh, IPO11 / RFU, DFFB / Fold change vs veh, DFFB / RFU, FOXP1 / Fold change vs veh, FOXP1 / RFU, CARD8 / Fold change vs veh, CARD8 / RFU, STRN3 / Fold change vs veh, STRN3 / RFU, ADK / Fold change vs veh, ADK / RFU, RASSF2 / Fold change vs veh, RASSF2 / RFU, WIPF1 / Fold change vs veh, WIPF1 / RFU, LARP1B / Fold change vs veh, LARP1B / RFU, RASA1 / Fold change vs veh, RASA1 / RFU, RB1 / Fold change vs veh, RB1 / RFU, PPFIA1 / Fold change vs veh, PPFIA1 / RFU, MAT2A / Fold change vs veh, MAT2A / RFU, CCT5 / Fold change vs veh, CCT5 / RFU, WDR92 / Fold change vs veh, WDR92 / RFU, CUX1 / Fold change vs veh, CUX1 / RFU, TTC7A / Fold change vs veh, TTC7A / RFU, TMEM135 / Fold change vs veh, TMEM135 / RFU, DEPTOR / Fold change vs veh, DEPTOR / RFU, CPM / Fold change vs veh, CPM / RFU, DNAJB6 / Fold change vs veh, DNAJB6 / RFU, CACNA2D3 / Fold change vs veh, CACNA2D3 / RFU, DTX4 / Fold change vs veh, DTX4 / RFU, TFCP2 / Fold change vs veh, TFCP2 / RFU, GMCL1 /// GMCL1P1 / Fold change vs veh, GMCL1 /// GMCL1P1 / RFU, AEBP2 / Fold change vs veh, AEBP2 / RFU, SNHG1 /// SNORD22 /// SNORD25 /// SNORD26 /// SNORD27 /// SNORD28 /// SNORD29 /// SNORD31 / Fold change vs veh, SNHG1 /// SNORD22 /// SNORD25 /// SNORD26 /// SNORD27 /// SNORD28 /// SNORD29 /// SNORD31 / Fold change (Aza/veh), C12orf56 (ProbeSet 11735607_a_at) / Fold change (ACY-1035/veh), C12orf56 (ProbeSet 11735607_a_at) / Fold change (Aza/veh), FGFR1OP (ProbeSet 11751329_s_at) / Fold change (ACY-1035/veh), FGFR1OP (ProbeSet 11751329_s_at) / Fold change (Aza/veh), VPS36 (ProbeSet 11739960_a_at) / Fold change (ACY-1035/veh), VPS36 (ProbeSet 11739960_a_at) / RFU SYPL1 (11715823_x_at) / Fold change /veh SYPL1 (11715823_x_at) / RFU IGFBP7 (11715501_s_at) / Fold change /veh IGFBP7 (11715501_s_at) / RFU REEP3 (11722064_at) / Fold change /veh REEP3 (11722064_at) / RFU IGLL1 (11728026_x_at) / Fold change /veh IGLL1 (11728026_x_at): dose or concentration left out as unconfirmed
Conditions: MV-4-11 cells, 48 hours

SMILES: Nc1ccc(-c2cccs2)cc1NC(=O)c1ccc2c(c1)cc(C1CC1)n2CCN1CCOCC1 [ACY-1035]
- RFU ISYNA1 (11749810_s_at): 21.49 RFU
